Columns and labels:
[1] = biological target: T1, Anabaena ADP-Glc PPase (Nostoc sp. PCC 7120 = FACHB-418, UniProt P30521, W96A); test: colorimetric Pi release assay (PPi hydrolysed by pyrophosphatase), Hill fit; format: biochemical; settings: read-out: A 0.5
T1 construct: gene glgC; recombinant from plasmid pAnaE3a in E. coli AC70R1-504, purified, homotetramer, no tag mentioned
Excerpt: (§1) colorimetric Pi release assay (PPi hydrolysed by pyrophosphatase), Hill fit on Anabaena ADP-Glc PPase (Ana WT)

[2] = biological target: T2, Anabaena ADP-Glc PPase (Ana WT) (Nostoc sp. PCC 7120 = FACHB-418, UniProt P30521); test: as above; format: biochemical; settings: read-out: A 0.5
T2 construct: gene glgC; recombinant from plasmid pAnaE3a in E. coli AC70R1-504, purified, homotetramer, no tag mentioned
Excerpt: as §1

[3] = biological target: T3, Anabaena ADP-Glc PPase (Nostoc sp. PCC 7120 = FACHB-418, UniProt P30521, Q58A); test: as above; format: biochemical; settings: read-out: A 0.5
T3 construct: gene glgC; recombinant from plasmid pAnaE3a in E. coli AC70R1-504, purified, homotetramer, no tag mentioned
Excerpt: as §1

[4] = biological target: T4, potato tuber ADP-Glc PPase (StuS/StuL) (Solanum tuberosum, UniProt P23509+Q00081); settings: read-out: A 0.5; allosteric activator; 1.5 mM ATP, 0.5 mM [14C]Glc-1P, 7 mM MgCl2, 50 mM HEPPS pH 8.0, 37°C
T4 sequence (P23509 71-521 limits assumed): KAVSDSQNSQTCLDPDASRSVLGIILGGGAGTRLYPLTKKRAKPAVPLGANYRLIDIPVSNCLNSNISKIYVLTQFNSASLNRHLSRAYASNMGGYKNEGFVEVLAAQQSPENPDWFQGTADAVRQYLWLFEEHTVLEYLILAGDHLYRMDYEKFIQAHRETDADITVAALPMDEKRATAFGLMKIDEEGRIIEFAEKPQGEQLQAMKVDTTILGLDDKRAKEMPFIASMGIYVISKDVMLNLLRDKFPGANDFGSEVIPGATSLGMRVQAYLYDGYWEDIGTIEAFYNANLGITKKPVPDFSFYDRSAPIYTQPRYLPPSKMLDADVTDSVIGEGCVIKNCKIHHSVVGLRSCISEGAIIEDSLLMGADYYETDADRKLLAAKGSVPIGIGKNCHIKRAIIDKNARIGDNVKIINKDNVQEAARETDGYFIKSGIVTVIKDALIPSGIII
T4 sequence (Q00081 7-470): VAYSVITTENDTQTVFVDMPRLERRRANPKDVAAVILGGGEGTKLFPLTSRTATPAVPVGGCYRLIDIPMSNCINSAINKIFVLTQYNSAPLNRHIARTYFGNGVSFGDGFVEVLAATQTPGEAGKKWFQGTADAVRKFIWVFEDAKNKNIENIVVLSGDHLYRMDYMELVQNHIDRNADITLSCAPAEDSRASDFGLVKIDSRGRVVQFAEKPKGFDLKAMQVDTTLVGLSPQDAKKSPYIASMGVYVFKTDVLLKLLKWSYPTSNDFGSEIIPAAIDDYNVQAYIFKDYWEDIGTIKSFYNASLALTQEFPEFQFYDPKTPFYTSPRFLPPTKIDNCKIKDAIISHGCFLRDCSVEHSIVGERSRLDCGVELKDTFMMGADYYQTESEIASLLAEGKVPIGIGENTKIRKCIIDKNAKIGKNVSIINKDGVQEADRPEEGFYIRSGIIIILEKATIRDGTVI

T3 sequence (P30521 whole entry Q58A): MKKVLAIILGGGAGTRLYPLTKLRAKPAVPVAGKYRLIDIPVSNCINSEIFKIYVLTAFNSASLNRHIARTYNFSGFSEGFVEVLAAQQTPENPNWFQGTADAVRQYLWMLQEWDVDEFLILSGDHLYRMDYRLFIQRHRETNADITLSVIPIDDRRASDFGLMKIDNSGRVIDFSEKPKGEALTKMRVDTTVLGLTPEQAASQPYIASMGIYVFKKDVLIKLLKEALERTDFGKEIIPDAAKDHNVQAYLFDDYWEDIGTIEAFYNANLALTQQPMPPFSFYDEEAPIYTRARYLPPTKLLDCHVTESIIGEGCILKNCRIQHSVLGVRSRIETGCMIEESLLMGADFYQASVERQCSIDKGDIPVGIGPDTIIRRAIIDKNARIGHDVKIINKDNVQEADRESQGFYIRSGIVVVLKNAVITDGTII
T1 sequence (P30521 whole entry W96A): as the sequence (P30521 whole entry Q58A) above, with A58Q, W96A counted along it
T2 sequence (P30521 whole entry): as the sequence (P30521 whole entry Q58A) above, with A58Q counted along it

- EC50 [1]: 83 ± 8 µM
- EC50 [2]: 76 ± 4 µM
- EC50 [3]: 95 ± 8 µM
- EC50 [4]: 54 ± 4 µM
SMILES: O=C(O)[C@H](O)COP(=O)(O)O [3-PGA, 3-phosphoglycerate]
